Read-outs that look alike come from different tables or passages of the source. Marks after values point to notes of the source that are not given here.
Experiments:
[1] = molecular target: dog renal Na^+/K^+ ATPase (Canis lupus familiaris (Dog) (Canis familiaris), UniProt P50997); experiment: biochemical; details: IC50 inhibition of dog renal Na+/K+ ATPase, purified dog kidney enzyme;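 note: enzyme preincubated with inhibitor 10 min at 37 °C, then K^+ and ^32P-ATP added for 15 min, released ^32P counted, activity relative to untreated control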
Text: Inhibition of Dog Renal Na^+/K^+ ATPase Activity
The compounds were thus tested for their inhibitory effect on the canine renal Na^+/K^+ ATPase enzyme.
Kidneys were excised from 1-3 year-old male beagle dogs (WuXi AppTec, Suzhou Co., Ltd. 1318 Wuzhong Ave., Wuzhong District Suzhou, 215104 P.R. China) under pentobarbital anesthesia (Import Authorization from Italian Health Ministry 0009171-09/04/2015-DGSAF-COD_UO-P, 2015). Kidneys were sliced and the outer medulla was dissected and suspended (1 g/10 ml) in a sucrose-histidine solution containing 250 mM sucrose, 30 mM histidine, and 5 mM EDTA, pH 7.2. The tissue was homogenized by using an Ultra Turrax homogenizer. The sample was centrifuged at 6,000 g for 15 min. Next, the supernatant was decanted and centrifuged at 48,000 g for 30 min. The pellet was suspended in the sucrose-histidine buffer and incubated for 20 min with a sodium-dodecyl-sulphate (SDS) solution dissolved in a gradient buffer containing 25 mM imidazole and 1 mM EDTA, pH 7.5. The sample was layered on the top of a sucrose discontinuous gradient (10, 15, and 29.4%) and centrifuged at 60,000 g for 115 min. The pellet was suspended in the gradient buffer.
Increasing concentrations of the standard ouabain, or tested compound, were incubated with 0.3 μg of purified dog kidney enzyme for 10 min at 37° C. in 120 μl final volume of a medium containing 140 mM NaCl, 3 mM MgCl2, 50 mM Hepes-Tris, 3 mM ATP, pH 7.5. Then, 10 μl of a solution containing 10 mM KCl and 20 nCi of ^32P-ATP (3-10 Ci/mmol, Perkin Elmer) were added. The reaction was allowed to continue for 15 min at 37° C. and then stopped by acidification with 20% v/v ice-cold perchloric acid. ^32P was separated by centrifugation with activated Charcoal (Norit A, Serva) and the radioactivity was counted. The inhibitory activity was expressed as percent of the control samples carried out in the absence of ouabain, or tested compound.

SERCA2a = SERCA2a (Cavia porcellus, UniProt A0A286XD73); experiment: SERCA2a ATPase activity in heart-derived SR microsomes from normal guinea-pig; assay type: biochemical
Sequence of SERCA2a (A0A286XD73 1-997): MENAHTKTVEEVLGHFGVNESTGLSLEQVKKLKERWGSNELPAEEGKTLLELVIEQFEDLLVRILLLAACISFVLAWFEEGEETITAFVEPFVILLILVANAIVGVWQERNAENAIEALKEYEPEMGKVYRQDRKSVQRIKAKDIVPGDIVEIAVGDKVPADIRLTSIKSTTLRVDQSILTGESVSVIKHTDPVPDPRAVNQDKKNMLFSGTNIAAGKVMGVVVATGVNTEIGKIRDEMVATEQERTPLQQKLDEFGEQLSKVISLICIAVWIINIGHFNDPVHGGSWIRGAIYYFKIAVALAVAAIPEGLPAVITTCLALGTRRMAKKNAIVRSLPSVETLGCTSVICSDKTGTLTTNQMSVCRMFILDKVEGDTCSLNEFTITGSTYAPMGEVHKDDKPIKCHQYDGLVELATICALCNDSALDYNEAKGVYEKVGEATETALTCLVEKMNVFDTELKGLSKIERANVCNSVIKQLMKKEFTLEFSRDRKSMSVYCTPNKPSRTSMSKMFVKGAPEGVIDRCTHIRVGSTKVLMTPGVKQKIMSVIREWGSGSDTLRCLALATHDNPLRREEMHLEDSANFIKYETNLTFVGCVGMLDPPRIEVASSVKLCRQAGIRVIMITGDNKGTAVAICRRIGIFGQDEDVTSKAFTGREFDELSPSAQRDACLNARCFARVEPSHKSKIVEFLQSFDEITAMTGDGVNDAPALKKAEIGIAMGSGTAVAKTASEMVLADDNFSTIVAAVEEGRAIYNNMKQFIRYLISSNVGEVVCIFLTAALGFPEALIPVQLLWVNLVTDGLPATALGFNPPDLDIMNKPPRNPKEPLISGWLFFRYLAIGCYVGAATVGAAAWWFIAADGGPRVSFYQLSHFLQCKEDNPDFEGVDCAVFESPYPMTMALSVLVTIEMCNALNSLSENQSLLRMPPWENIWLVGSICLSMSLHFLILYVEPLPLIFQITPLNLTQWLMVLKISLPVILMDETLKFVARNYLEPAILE
Procedure: SERCA2a ATPase Activity in Heart-Derived SR Microsomes from Normal Quinea-Pig
SERCA2a activity was measured in vitro as ^32P-ATP hydrolysis at different Ca^2+ concentrations (100-4000 nM) in the absence and presence of the tested compounds, as described (Micheletti R. et al., Am J Card 2007, 99:24A-32A). Increasing concentrations of each compound (ranging from 1 to 200 nM) were pre-incubated with 2 μg of SERCA2a enriched microsomes for 5 min at 4° C. in 80 μl of a solution containing 100 mM KCl, 5 mM MgCl2, 1 μM A23187, 20 mM Tris, pH 7.5. […] SERCA2a-dependent activity was identified as the portion of total hydrolytic activity inhibited by 10 μM cyclopiazonic acid (Seidler N W et al., J Biol Chem. 1989, 264:17816-23).
Dose-response curves were fitted by using a sigmoidal equation and the activity at the maximal velocity (Vmax) and the Kd for Ca^2+ were calculated (Synergy Software KaleidaGraph 3.6). The effect of the compounds in normal guinea-pig preparations was expressed as % decrease of Kd Ca^2+ (implying an increase of affinity for Ca^2+) of a control sample run in the absence of compound (Table 2). […] Data are mean±SD, n=number of experiments, *at least p<0.05.

[2] = compound 10 nM, read-out: Kd Ca2+ (nM) mean ± SD
[3] = compound 100 nM, read-out: Kd Ca2+ (nM) mean ± SD
[4] = compound 200 nM, read-out: Kd Ca2+ (nM) mean ± SD
[5] = read-out: Kd Ca2+ (nM) mean ± SD, compound 100 nM
[6] = read-out: Kd Ca2+ (nM) mean ± SD, compound 200 nM

Row | SMILES | IC50 [1] [µM] | % change in Ca2+ Kd vs control (negative = decrease) (SERCA2a; compound 100 nM) | Kd (SERCA2a; [3]) [nM] | % change in Ca2+ Kd vs control (negative = decrease) (SERCA2a; compound 200 nM) | further results
1 | C[C@]12CCC(=CCCCN)CC1[C@@H](O)C[C@@H]1[C@@H]2CC[C@]2(C)C(=O)CC[C@@H]12 (mixture of isomers) [CVie209, (EZ)-3-(4-aminobutyliden]-6alpha-hydroxyandrostane-17-one] | 0.8 |  |  |  | 
2 | CCOC(=O)C[C@H]1CC[C@]2(C)C3CC[C@]4(C)C(=O)CCC4C3C[C@H](O)C2C1 (stereo partly drawn) [CVie213, Ethyl (6alpha-hydroxy-17-ketoandrostane-3beta-yl) acetate] | > 100 | −23%* | 378 ± 114 | −17%* | % change in Ca2+ Kd vs control (negative = decrease) (SERCA2a; compound 10 nM): −12%; Kd (SERCA2a; [2]): 432 ± 129 nM; Kd (SERCA2a; [4]): 407 ± 124 nM
3 | C[C@]12CC[C@H](CCC3CCNC3)CC1[C@@H](CO)[C@@H](O)C1C2CC[C@]2(C)C(=O)CCC12 (stereo partly drawn) [CVie410, 3beta-[2-(pirrolidin-3yl)ethyl]6alpha-hydroxymethyl-7alpha-hydroxyandrostane-17-one] | 3.7 |  |  |  | 
4 | C[C@]12CC[C@H](CCC3CNC3)CC1[C@@H](CO)[C@@H](O)C1C2CC[C@]2(C)C(=O)CCC12 (stereo partly drawn) [CVie408] | 3.3 | −20.7%* |  | −21%* | Kd (SERCA2a; [5]): 356 ± 33.8 nM; Kd (SERCA2a; [6]): 355 ± 66.9 nM
5 | C[C@]12CC/C(=C\CC3CNC3)CC1[C@@H](CO)C(=O)C1C2CC[C@]2(C)C(=O)CCC12 (stereo partly drawn) [CVie403] | 2.9 |  |  |  | 
6 | C[C@]12CC[C@H](CCCC(=O)O)CC1[C@H](O)C[C@@H]1[C@@H]2CC[C@]2(C)C(=O)CC[C@@H]12 (stereo partly drawn) [CVie215, 4-(6beta-hydroxy-17-oxoandrostane-3-yl) butyric acid] | > 100 |  | 437 ± 74.1 |  | Kd (SERCA2a; compound 1 nM, read-out: Kd Ca2+ (nM) mean ± SD): 530 ± 47.9 nM; Kd (SERCA2a; [2]): 459 ± 80.3 nM
7 | C[C@]12CC/C(=C\CC3CNC3)CC1[C@@H](O)C[C@@H]1[C@@H]2CC[C@]2(C)C(=O)CC[C@@H]12 (stereo partly drawn) [CVie205, (E)-3-[2-(azetidin-3-yl)ethyliden]-6alpha-hydroxyandrostane-17-one] | 7 | −16.7%* |  | −13.1%* | Kd (SERCA2a; [5]): 656 ± 56.6 nM; Kd (SERCA2a; [6]): 683 ± 46.4 nM
8 | C[C@]12CC/C(=C\CCC(=O)O)CC1[C@H](O)C[C@@H]1[C@@H]2CC[C@]2(C)C(=O)CC[C@@H]12 (stereo partly drawn) [CVie203, (E)-4-(6beta-hydroxy-17-oxoandrostane-3-yliden)butyric acid] | > 100 | −15%* | 386 ± 33.3 | −14%* | % change in Ca2+ Kd vs control (negative = decrease) (SERCA2a; compound 10 nM): −8%; Kd (SERCA2a; [2]): 418 ± 36.5 nM; Kd (SERCA2a; [4]): 393 ± 31.3 nM
9 | C[C@]12CCC(=CCC3CCNCC3)CC1[C@@H](CO)C(=O)C1C2CC[C@]2(C)C(=O)CCC12 (mixture of isomers) [CVie405, (E,Z)-3-[2-(piperidin-4-yl)ethyliden]-6alpha-hydroxymethylandrostane-7,17-dione] | 7.9 |  |  |  | 
10 | C[C@]12CC=C(CCC3CCNCC3)CC1[C@@H](O)C[C@@H]1[C@@H]2CC[C@]2(C)C(=O)CC[C@@H]12 (stereo partly drawn) [CVie208, 3-[2-(piperidin-4-yl)ethyl]-6alpha-hydroxyandrost-2-ene-17-one hydroiodide] | 10.4 | −19.1%* | 362 ± 72.2 | −21.7% | Kd (SERCA2a; [4]): 350 ± 109 nM
11 | C[C@]12CC[C@H](CCC3CNC3)CC1[C@@H](CO)C(=O)C1C2CC[C@]2(C)C(=O)CCC12 (stereo partly drawn) [CVie407] | 3.5 | −8.9% |  | 0% | Kd (SERCA2a; [5]): 390 ± 91.4 nM; Kd (SERCA2a; [6]): 428 ± 87.3 nM
12 | C[C@]12CC=C(CCCCN)CC1[C@@H](O)CC1C2CC[C@]2(C)C(=O)CCC12 (stereo partly drawn) [CVie207, (E)-3-(4-aminobutyl)-6alpha-hydroxyandrost-2-ene-17-one hydroiodide] | 3.9 |  |  |  | 
13 | C[C@]12CC/C(=C/CCC(=O)O)CC1[C@H](O)C[C@@H]1[C@@H]2CC[C@]2(C)C(=O)CC[C@@H]12 (stereo partly drawn) [CVie204, (Z)-4-(6beta-hydroxy-17-oxoandrostane-3-yliden)butyric acid] | > 100 | +13% | 493 ± 107 | −3% | Kd (SERCA2a; [4]): 424 ± 82.7 nM
14 | C[C@]12CC[C@H](CCC3CCNCC3)CC1[C@@H](CO)C(=O)[C@@H]1[C@@H]2CC[C@]2(C)C(=O)CC[C@@H]12 (stereo partly drawn) [CVie411, 3beta-[2-(piperidin-4-yl)ethyl]-6alpha-hydroxymethylandrostane-7,17-dione] | 1.9 | 0% | 428 ± 76.6 | −4.9% | Kd (SERCA2a; [4]): 407 ± 111 nM
15 | C[C@]12CC/C(=C/CCC(=O)O)CC1[C@@H](O)C[C@@H]1[C@@H]2CC[C@]2(C)C(=O)CC[C@@H]12 (stereo partly drawn) [CVie202, (Z)-4-(6alpha-hydroxy-17-oxoandrostane-3-yliden)butyric acid] | > 100 | −7% | 436 ± 24.9 | −6% | % change in Ca2+ Kd vs control (negative = decrease) (SERCA2a; compound 10 nM): −4%; Kd (SERCA2a; [2]): 448 ± 9.4 nM; Kd (SERCA2a; [4]): 437 ± 26.4 nM
16 | C[C@]12CC/C(=C/CC3CCNCC3)CC1[C@@H](O)C[C@@H]1[C@@H]2CC[C@]2(C)C(=O)CC[C@@H]12 (stereo partly drawn) [CVie211, (Z)-3-[2-(piperidin-4-yl)ethyliden]-6alpha-hydroxyandrostane-17-one] | 8.3 |  |  |  | 
17 | C[C@]12CC/C(=C\CC3CCNCC3)CC1[C@@H](O)C[C@@H]1[C@@H]2CC[C@]2(C)C(=O)CC[C@@H]12 (stereo partly drawn) [CVie210, (E)-3-[2-(piperidin-4-yl)ethyliden]-6alpha-hydroxyandrostane-17-one] | 13.1 |  |  |  | 
18 | C[C@]12CC[C@H](CCC3CCNC3)CC1[C@@H](CO)C(=O)C1C2CC[C@]2(C)C(=O)CCC12 (stereo partly drawn) [CVie409, 3beta-[2-(pirrolidin-3yl)ethyl]-6alpha-hydroxymethylandrostane-7,17-dione] | 3.4 |  |  |  | 
19 | CNCCCCC=C1CC[C@]2(C)C3CC[C@]4(C)C(=O)CCC4C3[C@H](O)[C@H](CO)C2C1 (mixture of isomers) [CVie406, (E,Z)-3-(5-N-methylaminopentyliden)-6alpha-hydroxymethyl-7alpha-hydroxyandrostane-17-one] | 1.9 |  |  |  | 
20 | CCOC(=O)CCC[C@H]1CC[C@]2(C)C3CC[C@]4(C)C(=O)CCC4C3C[C@H](O)C2C1 (stereo partly drawn) [CVie217, 4-(6alpha-hydroxy-17-oxoandrostane-3-yl) ethylbutiroate] | > 100 | −20%* |  | −29.4%* | % change in Ca2+ Kd vs control (negative = decrease) (SERCA2a; compound 1 nM): −20%; % change in Ca2+ Kd vs control (negative = decrease) (SERCA2a; compound 10 nM): −24.7%*; Kd (SERCA2a; read-out: Kd Ca2+ (nM) mean ± SD, compound 1 nM): 763 ± 103 nM; Kd (SERCA2a; read-out: Kd Ca2+ (nM) mean ± SD, compound 10 nM): 719 ± 142 nM; Kd (SERCA2a; [5]): 764 ± 120 nM; Kd (SERCA2a; [6]): 674 ± 150 nM
21 | C[C@]12CCC(=CCC3CCNC3)CC1[C@@H](CO)C(=O)C1C2CC[C@]2(C)C(=O)CCC12 (mixture of isomers) [CVie402, (E,Z)-3-[2-(pirrolidin-3yl)ethyliden]-6alpha-hydroxymethylandrostane-7,17-dione] | 4.6 |  |  |  | 
22 | CNCCCC/C=C1\CC[C@]2(C)C3CC[C@]4(C)C(=O)CCC4C3C(=O)[C@H](CO)C2C1 (stereo partly drawn) [CVie401, (E,Z)-3-(5-N-methylaminopentyliden]-6alpha-hydroxymethylandrostane-7,17-dione] | 24 |  |  |  | 

From patent publication US12503484B2, “Androstane derivatives with activity as pure or predominantly pure stimulators of SERCA2a for the treatment of heart failure” (Seismic Pharmaceuticals, priority 2019, dated 2025)
